Values quoted from earlier work in patent US11975079B2, “Truncated Evans Blue modified fibroblast activation protein inhibitor, preparation method and application thereof” (YANTAI LANNACHENG BIOTECHNOLOGY CO., LTD., priority 2021, dated 2024).

## N#C[C@@H]1CCCN1C(=O)CNC(=O)c1ccnc2ccc(OCCCN3CCN(C(=O)CN4CCN(CC(=O)O)CCN(CC(=O)O)CCN(CC(=O)O)CC4)CC3)cc12 [FAPI-02]
24 hours later
  decrease of retained dose at tumor site: about 75%
According to current reports
  clearance in blood circulation: completely cleared in blood circulation within one hour
